Data taken from patent US20250228239A1, “MOLECULES HAVING PESTICIDAL UTILITY, AND INTERMEDIATES, COMPOSITIONS, AND PROCESSES, RELATED THERETO” (priority 2024, published 2025).
Like-named read-outs stand apart in the source and are kept apart here.

Experiments:
Assay type in all cases: in vivo
[1] = tested on: Cabbage Looper (Trichoplusia ni, TRIPNI); assay: Bioassays on Cabbage Looper (CL), 128-well diet tray assay; details: Trichoplusia ni
Method in brief: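 Activity is mean percent mortality over eight wells of second-instar larvae exposed to diet treated at 50 μg/cm^2 for 5–7 days at 25° C.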

[2] = tested on: Beet Armyworm (Spodoptera exigua, LAPHEG); assay: Bioassays on Beet Armyworm (BAW), 128-well diet tray assay; details: Spodoptera exigua
Method in brief: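 Mortality of second-instar larvae (1–5/well) on artificial diet treated with 50 μg/cm^2 compound, read after 5–7 days at 25° C.; values are means of eight wells.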

[3] = tested on: Yellow Fever Mosquito (Aedes aegypti, AEDSAE); details: for YFM rating: Table ABC / ABC-DP rating
Method in brief: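 Rating-scale grades reflect larval mortality scored per well after 3 days at room temperature under non-evaporative lids. Larvae (~1 day old, hatched overnight in liver-powder water) were added to six daughter plates per compound, prepared from a 4000 ppm DMSO stock diluted in 90:10 water/acetone.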

[4] = tested on: Green Peach Aphid (Myzus persicae, MYZUPE); assay: Bioassays on Green Peach Aphid (GPA), foliar spray on cabbage seedlings; details: 72 h
Experimental: Certain molecules disclosed in this document were tested against GPA using procedures described in the following example. In the reporting of the results, the “GPA & YFM Rating Table” was used (See Table Section).
Cabbage seedlings grown in 3-inch pots, with 2-3 small (3-5 cm) true leaves, were used as test substrate. The seedlings were infested with 20-50 GPA (wingless adult and nymph stages) one day prior to chemical application. Four pots with individual seedlings were used for each treatment. Test molecules (2 mg) were dissolved in 2 mL of acetone/methanol (1:1) solvent, forming stock solutions of 1000 ppm test molecule. The stock solutions were diluted 5× with 0.025% Tween 20 in water to obtain the solution at 200 ppm test molecule. A hand-held aspirator-type sprayer was used for spraying a solution to both sides of […] leaves until runoff. Reference plants (solvent check) were sprayed with the diluent only containing 20% by volume of acetone/methanol (1:1) solvent. Treated plants were held in a holding room for three days at approximately 25° C. and ambient relative humidity (RH) prior to grading. Evaluation was conducted by counting the number of live aphids per plant under a microscope. Percent control was measured using Abbott's correction formula (W. S. Abbott, “A Method of Computing the Effectiveness of an Insecticide” J. Econ. Entomol. 18 (1925), pp. 265-267) as follows. Corrected % Control=100*(X−Y)/X where X=No. of live aphids on solvent check plants and Y=No. of live aphids on treated plants. The results are indicated in the table entitled “Table ABC: Biological Results” (See Table Section).

[5] = Cabbage Looper, rating class, read-out: CL
[6] = Beet Armyworm, rating class, read-out: BAW
[7] = Yellow Fever Mosquito, rating class
[8] = Green Peach Aphid, rating class, read-out: GPA
[9] = Table ABC: Biological Results, species CL, read-out: CL
[10] = Table ABC: Biological Results, species BAW, read-out: BAW
[11] = Table ABC: Biological Results, species YFM
[12] = Table ABC: Biological Results, species GPA, read-out: GPA
[13] = Cabbage Looper, Table ABC / ABC-DP rating, read-out: CL rating
[14] = Beet Armyworm, Table ABC / ABC-DP rating, read-out: BAW rating
[15] = Green Peach Aphid, Table ABC / ABC-DP rating, read-out: GPA rating

| Compound | pest or weed control at 50 µg/cm2 [1, 5] [%] | pest or weed control at 50 µg/cm2 [2, 6] [%] | YFM [3, 7] | pest or weed control at 200 µg/mL [4, 8] [%] | pest or weed control at 50 µg/cm2 [1, 9] [%] | pest or weed control at 50 µg/cm2 [2, 10] [%] | YFM [3, 11] | pest or weed control at 200 µg/mL [4, 12] [%] | further results |
| --- | --- | --- | --- | --- | --- | --- | --- | --- | --- |
| CC(=O)Nc1c(F)ccc(NC(=O)c2cc(NC(=O)[C@H]3[C@H](c4cccc(C(F)(F)F)c4)C3(Cl)Cl)ccc2Cl)c1F [F1678, N-(3-Acetamido-2,4-difluorophenyl)-2-chloro-5-((1R,3R)-2,2-dichloro-3-(3-(trifluoromethyl)phenyl)cyclopropane-1-carboxamido)benzamide] | 50 to 100 | 50 to 100 | B (More than 0 – Less than 80) | 80 to 100 | – | – | – | – | – |
| N#Cc1cc(F)ccc1N(Cc1ccccc1)C(=O)c1cc(NC(=O)[C@H]2[C@H](c3cc(Cl)cc(Cl)c3)C2(Cl)Cl)ccc1Cl (relative stereo) [F1099, trans-N-Benzyl-2-chloro-N-(2-cyano-4-fluorophenyl)-5-(2,2-dichloro-3-(3,5-dichlorophenyl)cyclopropane-1-carboxamido)benzamide] | – | – | – | – | 50 to 100 | 50 to 100 | A (80–100) | 0 to 80 | – |
| CC(Cl)C(=O)Nc1c(F)ccc(NC(=O)c2cc(NC(=O)[C@H]3[C@H](c4ccc(F)c(C(F)(F)F)c4)C3(Cl)Cl)ccc2Cl)c1F (stereo partly drawn) [F1667, 2-Chloro-N-(3-(2-chloropropanamido)-2,4-difluorophenyl)-5-((1R,3R)-2,2-dichloro-3-(4-fluoro-3-(trifluoromethyl)phenyl)cyclopropane-1-carboxamido)benzamide] | 50 to 100 | 50 to 100 | B (More than 0 – Less than 80) | 0 to 80 | – | – | – | – | – |
| CC(C)(C)OC(=O)Nc1cc(NC(=O)c2cc(NC(=O)[C@H]3[C@H](c4ccc(F)c(C(F)(F)F)c4)C3(Cl)Cl)ccc2Cl)c(F)c(F)c1F [F1736, tert-Butyl (5-(2-chloro-5-((1R,3R)-2,2-dichloro-3-(4-fluoro-3-(trifluoromethyl)phenyl)cyclopropane-1-carboxamido)benzamido)-2,3,4-trifluorophenyl)carbamate] | 50 to 100 | 50 to 100 | A (80–100) | 0 to 80 | – | – | – | – | – |
| CC(=O)Nc1cc(NC(=O)c2cc(NC(=O)[C@H]3[C@H](c4ccc(Cl)c(Cl)c4)C3(Cl)Cl)ccc2Cl)c(F)cc1F [F1246, N-(5-Acetamido-2,4-difluorophenyl)-2-Chloro-5-((1R,3R)-2,2-dichloro-3-(3,4-dichlorophenyl)cyclopropane-1-carboxamido)benzamide] | – | – | – | – | 50 to 100 | 50 to 100 | A (80–100) | 80 to 100 | – |
| Nc1ccc(F)c(NC(=O)c2cc(NC(=O)[C@H]3[C@H](c4ccc(Cl)c(Cl)c4)C3(Cl)Cl)ccc2Cl)c1F [F1250, N-(3-Amino-2,6-difluorophenyl)-2-chloro-5-((1R,3R)-2,2-dichloro-3-(3,4-dichlorophenyl)cyclopropane-1-carboxamido)benzamide] | – | – | – | – | 50 to 100 | 50 to 100 | A (80–100) | 80 to 100 | – |
| CN(C(=O)C(F)(F)C(F)(F)F)c1c(F)ccc(NC(=O)c2cc(NC(=O)[C@H]3[C@H](c4ccc(Cl)c(Cl)c4)C3(Cl)Cl)ccc2Cl)c1F [F1615, 2-Chloro-5-((1R,3R)-2,2-dichloro-3-(3,4-dichlorophenyl)cyclopropane-1-carboxamido)-N-(2,4-difluoro-3-(2,2,3,3,3-pentafluoro-N-methylpropanamido)phenyl)benzamide] | 50 to 100 | 50 to 100 | A (80–100) | 0 to 80 | – | – | – | – | – |
| O=C(Nc1ccc(F)c(NC(=O)C(F)(F)C(F)(F)F)c1F)c1cc(NC(=O)[C@H]2[C@H](c3ccc(Cl)c(Cl)c3)C2(Cl)Cl)ccc1Cl [F1251, 2-Chloro-5-((1R,3R)-2,2-dichloro-3-(3,4-dichlorophenyl)cyclopropane-1-carboxamido)-N-(2,4-difluoro-3-(2,2,3,3,3-pentafluoropropanamido)phenyl)benzamide] | – | – | – | – | 50 to 100 | 50 to 100 | A (80–100) | 0 to 80 | – |
| O=C(NCCF)c1c(F)ccc(NC(=O)[C@H]2[C@H](c3ccc(F)c(Cl)c3)C2(Cl)Cl)c1F (relative stereo) [F2027, trans-3-(2,2-Dichloro-3-(3-chloro-4-fluorophenyl)cyclopropane-1-carboxamido)-2,6-difluoro-N-(2-fluoroethyl)benzamide] | – | – | – | – | – | – | – | – | pest or weed control at 50 µg/cm2 [1, 13]: 50 to 100%; pest or weed control at 50 µg/cm2 [2, 14]: 50 to 100%; YFM rating ([3]; Yellow Fever Mosquito): A (80–100); pest or weed control at 200 µg/mL [4, 15]: 80 to 100% |
| O=C(Nc1cc(NC(=O)C(F)(F)F)c(F)cc1F)c1cc(NC(=O)[C@H]2[C@H](c3ccc(Cl)c(Cl)c3)C2(Cl)Cl)ccc1Cl [F1245, 2-Chloro-5-((1R,3R)-2,2-dichloro-3-(3,4-dichlorophenyl)cyclopropane-1-carboxamido)-N-(2,4-difluoro-5-(2,2,2-trifluoroacetamido)phenyl)benzamide] | – | – | – | – | 50 to 100 | 50 to 100 | A (80–100) | 0 to 80 | – |
| CCCC(=O)Nc1c(F)ccc(NC(=O)c2cc(NC(=O)[C@H]3[C@H](c4ccc(F)c(Cl)c4)C3(Cl)Cl)ccc2Cl)c1F [F1705, N-(3-Butyramido-2,4-difluorophenyl)-2-chloro-5-((1R,3R)-2,2-dichloro-3-(3-chloro-4-fluorophenyl)cyclopropane-1-carboxamido)benzamide] | 50 to 100 | 50 to 100 | B (More than 0 – Less than 80) | 80 to 100 | – | – | – | – | – |
| Cc1c(Cl)cc(NC(=O)[C@H]2[C@H](c3ccc(F)c(Cl)c3)C2(Cl)Cl)cc1C(=O)NCC(F)(F)F (relative stereo) [F2042, trans-3-Chloro-5-(2,2-dichloro-3-(3-chloro-4-fluorophenyl)cyclopropane-1-carboxamido)-2-methyl-N-(2,2,2-trifluoroethyl)benzamide] | – | – | – | – | – | – | – | – | pest or weed control at 50 µg/cm2 [1, 13]: 50 to 100%; pest or weed control at 50 µg/cm2 [2, 14]: 50 to 100%; YFM rating ([3]; Yellow Fever Mosquito): A (80–100); pest or weed control at 200 µg/mL [4, 15]: 80 to 100% |
| CC(=O)Nc1c(F)ccc(NC(=O)c2cc(NC(=O)[C@H]3[C@H](c4ccc(F)c(Cl)c4)C3(Cl)Cl)ccc2Cl)c1F [F1694, N-(3-Acetamido-2,4-difluorophenyl)-2-chloro-5-((1R,3R)-2,2-dichloro-3-(3-chloro-4-fluorophenyl)cyclopropane-1-carboxamido)benzamide] | 50 to 100 | 50 to 100 | A (80–100) | 80 to 100 | – | – | – | – | – |
| O=C(Nc1c(F)cc(NC(=O)C(F)(F)F)cc1F)c1cc(NC(=O)[C@H]2[C@H](c3ccc(Cl)c(Cl)c3)C2(Cl)Cl)ccc1Cl [F1261, 2-Chloro-5-((1R,3R)-2,2-dichloro-3-(3,4-dichlorophenyl)cyclopropane-1-carboxamido)-N-(2,6-difluoro-4-(2,2,2-trifluoroacetamido)phenyl)benzamide] | – | – | – | – | 50 to 100 | 50 to 100 | – | 80 to 100 | – |
| Cc1c(Cl)cc(NC(=O)[C@H]2[C@H](c3ccc(F)c(Cl)c3)C2(Cl)Cl)cc1C(=O)Nc1ccc(F)cc1F (relative stereo) [F1190, trans-3-Chloro-5-(2,2-dichloro-3-(3-chloro-4-fluorophenyl)cyclopropane-1-carboxamido)-N-(2,4-difluorophenyl)-2-methylbenzamide] | – | – | – | – | 50 to 100 | 50 to 100 | – | 80 to 100 | – |
| CC(=O)Nc1cc(F)c(NC(=O)c2cc(NC(=O)[C@H]3[C@H](c4ccc(Cl)c(Cl)c4)C3(Cl)Cl)ccc2Cl)c(F)c1 [F1262, N-(4-Acetamido-2,6-difluorophenyl)-2-chloro-5-((1R,3R)-2,2-dichloro-3-(3,4-dichlorophenyl)cyclopropane-1-carboxamido)benzamide] | – | – | – | – | 50 to 100 | 50 to 100 | – | 80 to 100 | – |
